According to US20180214400A1, “THE USE OF KAURANES COMPOUNDS IN THE MANUFACTURE OF MEDICAMENT FOR TREATMENT OF CADIAC HYPERTROPY AND PULMONARY HYPERTENSION” (KEY-PHARMA BIOMEDICAL INC., priority 2015, published 2018):

Key:
[1] = tested on: Diabetic cardiomyopathy (DCM) rats; assay: Streptozotocin-induced diabetic cardiomyopathy; type: in vivo, Wistar rats; details: STZ diabetes, 12-16 weeks
Description: Diabetic cardiomyopathy (DCM) Diabetic induced injury to the myocardium. DCM, induced by streptozotocin (STZ), along with the associated changes occurring in inflammation, oxidative stress and fibrosis markers. Wistar rats were randomly divided into four groups: group A (Normal control), group B (Diabetes), group […] group D (DM/TMZ, trimetazidine treatment). After 12-16 weeks, left ventricular function was measured by the pressure-volume system. Cardiac tissues were prepared for histological study by hematoxlyin and eosin, Sirius red staining as well as for assays of oxidative stress. Oxidative stress, inflammation, and fibrosis markers were evaluated by molecular biological techniques. All data were measured morphometrically and statistically analyzed.

TAC rats = assay: Left ventricular pressure-volume relationship in TAC rats; type: in vivo; details: 3 or 9 weeks
Description: The left ventricular pressure and volume were measured simultaneously. Tow parameters can be derived by studying of the relationship of pressure-volume during changes of either preload or afterload. ESPVR, the slope of end-systolic pressure-volume relationships which represent end-systolic elastics; EDPVR, the slope of end-diastolic pressure-volume relationship which, represents cardiac stiffness. In hypertrophy hearts after 3 or 9 weeks TAC, the cardiac pump dysfunction was manifested by a significant decreased ESPVR and increased in EDPVR. […] Therefore, compound A are useful to preserve a normal elasticity during contraction and reduce diastolic stiffness of hearts with high pressure load as in TAC rats.
Heart hemodynamic Analysis was conducted by pressure-volume (PV) catheter. Rats were anesthetized and placed on a warming pad (37° C.). Underwent tracheostomy, rats were then ventilated by using a positive pressure with a tidal volume of 4-6 ml/200 g at 70 breaths/min using room air. […] After stabilization of the signal for 10-15 min, baseline PV loops were recorded at a steady state. […] After data were recorded under steady-state conditions and during preload reduction, parallel conductance values were obtained by the injection of 40 μl hypertonic saline (30%) into the right jugular vein. […] Data were recorded on separate channels of the PowerLab system. […]

microRNA21 = microRNA21 and fibrosis at penumbra region of ischemic heart; type: in vivo
Description: This effect of compound A has never been reported in prior art.

BNP = assay: Isoproterenol-induced cardiomyocyte hypertrophy (BNP RT-PCR, western blot, size); type: cell-based
Description: BNP is an important marker for hypertrophy.

[2] = tested on: ROS (reactive oxygen species); assay: ROS in cytosol and mitochondria of cardiomyocytes; type: cell-based; details: cardiomyocytes hypertrophy
Description: In this invention, we disclosed that compound A could suppress cardiomyocytes hypertrophy by reducing ROS (reactive oxygen species) in either cytosol and mitochondria in addition to the inhibition of PED, while classic PED inhibitor such as sildenafil has no such effects been reported in prior arts. This explains the superiority of compound A over sildenafil in suppressing hypertrophy and other diseases. This invention disclosed a new use of compound A as PED inhibitor with novel mechanism which is different than what been disclosed in prior art.

male rats = assay: Penile erection in male rats; type: in vivo; details: relative higher dose
[3] = tested on: mitochondrial KATP channel; assay: Mitochondrial KATP channel effect
Description: This invention disclosed exclusively that compound A per se had no effect on either sarcolemma or mitochondrial KATP channel. Instead, compound A is acting only as a sensitizer which render the KATP channel response greater to known KATP channel openers, such as pinacidil and to change of ATP.

[4] = tested on: acute ischemia-reperfusion heart injuries; details: cited from earlier work
[5] = tested on: cerebral ischemia/reperfusion (I/R) injury; details: within 24 hours; cited from earlier work

C[C@@]12CC[C@@H]3[C@@](CC[C@H]4[C@@]3(C)CCC[C@@]4(C)C(=O)O)(CC1=O)C2 [Compound A, (4α,8β,13β)-13-methyl-16-oxo-17-norkauran-18-oic acid]
cardiac hypertrophy [1]: significant inhibited
deteriorations in ESPVR and EDPVR (TAC rats): prevented the deteriorations
fibrosis at the same region (microRNA21): significant amelioration
microRNA21 (microRNA21; penumbra region of the ischemic heart): significant reduced
increase of BNP production and BNP mRNA expression (BNP; cardiomyocytes, isoproterenol stimulus): greatly reduce
increased size of myocardium induced by isoproterenol (BNP; isoproterenol): significantly reduce
ROS in cytosol and mitochondria [2]: reducing
penile erection (male rats): long lasting penile erection
effect on mitochondrial KATP channel per se [3]: had no effect
cardioprotective effect and arrhythmia [4]: cardioprotective effect
protection against cerebral I/R injury [5]: protect
